Here are results for 1 molecule from paper PMC5638327, “Comparison of bioavailability and antiplatelet action of ticagrelor in patients with ST-elevation myocardial infarction and non-ST-elevation myocardial infarction: A prospective, observational, single-centre study” (PLoS ONE, 2017).

Series [1] can be described thus: Pharmacokinetic assessment: plasma concentrations by liquid chromatography tandem mass spectrometry after ticagrelor loading dose. As to conditions: for Tmax / AUC(0-t) / Cmax: both sexes, human, plasma, 180 mg. It is filed as in vivo, human (patients with myocardial infarction). As to the method:
(§1) Consecutive STEMI and NSTEMI patients admitted to the study site (Cardiology Department, Dr. A. Jurasz University Hospital, Bydgoszcz, Poland) were screened for eligibility. After admission to the study centre, confirmation of the initial diagnosis of STEMI or NSTEMI, and provision of a written informed consent to participate in the trial, all study participants received an oral 300 mg LD of plain aspirin (Polpharma SA, Starogard Gdański, Poland) and 180 mg LD ticagrelor in integral tablets with 250 mL tap water. Subsequently, within 15 minutes of ticagrelor LD, all patients underwent coronary angiography followed by PCI as required. During the periprocedural period, all study participants received unfractionated heparin in body weight adjusted dose according to the European Society of Cardiology (ESC) recommendations. Plasma concentrations of ticagrelor and its active metabolite, as well as their antiplatelet effect, were evaluated according to the sampling schedule employed at our centre in previous PK/PD study (pre-treatment, 0.5 h, 1 h, 2 h, 3 h, 4 h, 6 h and 12 h post ticagrelor LD).
(§2) Blood samples for PK/PD evaluation were obtained from an 18-gauge cannula inserted into one of the forearm veins. The first 5 mL blood was discarded to avoid spontaneous platelet activation. In each patient specimens were collected at the eight pre-defined time. Detailed description of blood sample processing has been published in the study protocol (S1 File).
Ticagrelor and AR-C124910XX plasma concentrations were analyzed with liquid chromatography coupled with tandem mass spectrometry, using a validated method. Lower limits of quantification were 4.69 ng/mL for both ticagrelor and AR-C124910XX.
Statistical calculations were performed using the Statistica 12.5 package (StatSoft, Tulsa, OK, USA). Pharmacokinetic calculations and plots were made using the Matlab R2014 software (Mathworks, Natick, MA, USA); trapezoidal rule was applied to calculate AUC. Data for pharmacokinetic features of ticagrelor and AR-C124910XX, pharmacodynamic outcome variables, creatinine, glomerular filtration rate and left ventricle ejection fraction were presented as medians and interquartile ranges. Data for heart rate, systolic and diastolic blood pressure, age and body mass index were presented as means with standard deviations. […] Continuous variables were compared between both study groups with the Student’s t-test and Mann-Whitney U test, depending on the presence or absence of the normal distribution (as assessed by the Shapiro-Wilk test). Comparisons between categorical variables were performed by the chi-square test, with Yates's correction if necessary, or using Fisher's exact test. […]
Blood samples for pharmacokinetic and phar- infarction; PCI, percutaneous coronary intervention; PD, macodynamic assessment will be drawn at eight prede- pharmacodynamics; PK, pharmacokinetics; STEMI, ﬁned time points according to the blood sampling ST-elevation myocardial infarction. schedule already used at our site in a previous study
( pretreatment baseline, 30 min, 1, 2, 3, 4, 6 andsamples will be stored at temperature below −60°C until 12 hours post-ticagrelor LD— as shown in ﬁgure 1). 31 analysed.
All enrolled patients with ﬁnally unconﬁrmed initial Venous blood for the assessment of pharmacodynam-diagnosis of AMI will be excluded from the primar y ana- ics with the vasodilator-stimulated phosphoprotein lysis. Patients qualiﬁed for urgent coronar y arter y bypass (VASP) assay and multiple electrode aggregometr y surgery within the blood sampling period also will not (MEA) will be collected into trisodium citrate and be included in the analysis. All study participants not hirudin vacuum test tubes, respectively. The ﬁrst 3–5mL receiving PCI will be reported. of blood will be discarded to avoid spontaneous platelet Study population activation. The pharmacodynamic analysis will be per- […]

Another series deals with platelet reactivity. The series can be described thus: Platelet reactivity by Multiplate (multiple electrode aggregometry) after ticagrelor loading dose. In kind it is in vivo, human (patients with myocardial infarction). As to conditions: median [interquartile range]; for time to achieve platelet inhibition below the cut-off value for HPR (Multiplate): HPR = AUC >46 U. As to the method: as §1, §2
Platelet reactivity was assessed using VASP and Multiplate. The VASP assay (Biocytex, Inc., Marseille, France) was used in all study participants, while Multiplate (Roche Diagnostics International Ltd., Rotkreuz, Switzerland) was used in all except in those treated with glycoprotein (GP) IIb/IIIa receptor inhibitors. Pharmacodynamic evaluation was performed according to the manufacturers' instructions. HPR was defined as platelet reactivity index >50% for the VASP assay and AUC >46 units (U) for Multiplate. […]
Table 1 Inclusion and exclusion criteria of the PINPOINT study
Inclusion criteria Exclusion criteria
▸ Provision of informed consent prior to any ▸ Treatment with ticlopidine, clopidogrel, prasugrel or ticagrelor within study-specific procedure 14 days before the study enrolment
▸ Diagnosis of STEMI or NSTEMI ▸ Hypersensitivity to ticagrelor
▸ Men or non-pregnant women ▸ Current treatment with oral anticoagulant or chronic therapy with low-molecular-weight heparin
▸ Provision of informed consent for angiography ▸ Active bleeding […]
▸ History of intracranial haemorrhage
▸ Fibrinolytic treatment during the index event
▸ Recent gastrointestinal bleeding (within 30 days)
▸ History of coagulation disorders
▸ History of moderate or severe hepatic impairment
▸ History of major surgery or severe trauma (within 3 months)
▸ Second or third degree atrioventricular block during screening for […]
▸ Patient requiring dialysis
▸ Manifest infection or inflammatory state
▸ Killip class III or IV during screening for eligibility
▸ Current therapy with strong CYP3A inhibitors or strong CYP3A […]
NSTEMI, non-ST-elevation myocardial infarction; PCI, percutaneous coronary intervention; STEMI, ST-elevation myocardial infarction. […]
MEA (Roche Diagnostics International, Rotkreuz, staff and the attending physician. The type of implanted Switzerland) will be used at all predeﬁned time points stent and choice of the access site for coronary invasive ( ﬁgure 1) for all study participants with the exception of procedure (radial or femoral ) will be at the discretion of those treated with glycoprotein IIb/IIIa (GP IIb/IIIa) the operator. During the periprocedural period, all study receptor inhibitors as this therapy may affect the results participants will receive unfractionated heparin in body of platelet reactivity assessment per formed with MEA weight adjusted dose according to the ESC recommenda-( ﬁgure 2). Pharmacodynamic assessment with VASP and tions.2336Administration of GP IIb/IIIa receptor in- […]

The mark [2] stands for this setting: po, NSTEMI patients, oral 180 mg ticagrelor LD, 0 to 12 hours, median [interquartile range].
[3] abbreviates: po, STEMI patients, oral 180 mg ticagrelor LD, 0 to 12 hours, median [interquartile range].

Read-outs that look alike come from different tables or passages of the source.

For orientation: Tmax means the time from dosing to the highest level. By Cmax is commonly meant the highest concentration seen after dosing. Take `CCCSc1nc(N[C@@H]2C[C@H]2c2ccc(F)c(F)c2)c2nnn([C@@H]3C[C@H](OCCO)[C@@H](O)[C@H]3O)c2n1` [ticagrelor]: the Tmax was found to be 4 h in series [1] (oral, NSTEMI opioid-treated (morphine) patients (second value of the pair), post hoc analysis, median [interquartile range]); 1 h in series [1] (oral, NSTEMI patients without morphine (first value of the pair), post hoc analysis, median [interquartile range]); 2.5 h in series [1] (setting [2]); 4 h in series [1] (setting [3]). The AUC(0-t) is 2.38 ± 2.28 µg·h/mL in series [1] (oral, internal pilot study, first 30 patients with STEMI, mean and SD, read-out: AUC(0–6)); 3.99 µg·h/mL in series [1] (po, NSTEMI patients (n = 24), oral 180 mg ticagrelor LD, median [interquartile range], read-out: AUC(0–6)); 8.6 µg·h/mL in series [1] (po, NSTEMI patients, oral 180 mg ticagrelor LD, median [interquartile range], read-out: AUC(0–12)); 2.49 µg·h/mL in series [1] (po, STEMI patients (n = 49), oral 180 mg ticagrelor LD, median [interquartile range], read-out: AUC(0–6)); 5.68 µg·h/mL in series [1] (po, STEMI patients, oral 180 mg ticagrelor LD, median [interquartile range], read-out: AUC(0–12)). The Cmax came out at 1.16 µg/mL in series [1] (setting [2]) and 1.11 µg/mL in series [1] (setting [3]). Further, the “lower AUC(0–6) in STEMI than in NSTEMI patients” value in series [1] (first 6 h after 180 mg ticagrelor LD) came out at 38%. Besides, the “Platelet reactivity (Multiplate)” value in the series on platelet reactivity (NSTEMI, 0.5 h after 180 mg ticagrelor LD) is 49.0 [21.0–86.0] U; with platelet reactivity (NSTEMI, 2 h after 180 mg ticagrelor LD), 18.0 [10.0–31.0] U; in the series with platelet reactivity (STEMI, 0.5 h after 180 mg ticagrelor LD) it was 88.0 [51.5–103.5] U; with platelet reactivity (STEMI, 2 h after 180 mg ticagrelor LD), 36.0 [22.0–52.5] U. The “time to achieve platelet inhibition below the cut-off value for HPR (Multiplate)” value was 0.5 [0.5–2.0] h in the series with platelet reactivity (NSTEMI) and 2.0 [0.5–3.0] h with platelet reactivity (STEMI).
